Results taken from article PMC8214221, “Sequence determinants in the cathelicidin LL-37 that promote inflammation via presentation of RNA to scavenger receptors” (The Journal of Biological Chemistry, 2021).
Residues, ends and D or L forms follow the SMILES beside them.

These compounds were tested on normal human epidermal keratinocytes (NHEKs) (assay: LDH release cytotoxicity assay in keratinocytes). Details: minimal concentration giving 50% LDH release by NHEKs.
Assay type: cell-based
From the text: Since LL-34 was the minimal truncation mutant of LL-37 that retained both antimicrobial and immune modulatory activity, we prepared a series of synthetic peptides with sequential substitutions of alanine at each amino acid position of the LL-34 parent peptide (Table 1). We compared the minimum inhibitory concentration (MIC) for the LL-34 parent peptide and the alanine mutants (LL-34 peptides—L1A and R34A) against methicillin-resistant Staphylococcus aureus strain USA300 (Fig. 1A). LL-34 peptides were incubated at concentrations of 0 to 100 μM with bacteria. The minimal concentration at which no growth was observed was noted after 18 h of incubation. […] Because of these changes in the MIC against S. aureus between the mutants, we investigated the effective toxicity profile of the peptides in normal human epidermal keratinocytes (NHEKs) by lactate dehydrogenase (LDH) release assay (Table 1). […] Most other peptides were cytotoxic at a minimal concentration of 10 μM, whereas LL-34—K15A was toxic at a concentration of 2.5 μM.
LDH cytotoxicity assay was performed according to manufacturer's instructions (Thermo Fisher Scientific). Culture supernatants from keratinocytes were used fresh for LDH assay after experimental treatments.

SMILES	Minimal cytotoxic concentration in NHEK (LD50) [µM]
CC[C@H](C)[C@H](NC(=O)[C@H](CCCCN)NC(=O)[C@H](CCC(=O)O)NC(=O)[C@H](CCCCN)NC(=O)[C@H](CO)NC(=O)[C@H](CCCCN)NC(=O)[C@H](CCCNC(=N)N)NC(=O)[C@H](Cc1ccccc1)NC(=O)[C@H](Cc1ccccc1)NC(=O)[C@H](C)NC(=O)CNC(=O)[C@H](CC(C)C)NC(=O)[C@@H](N)CC(C)C)C(=O)NCC(=O)N[C@@H](CCCCN)C(=O)N[C@@H](CCC(=O)O)C(=O)N[C@@H](Cc1ccccc1)C(=O)N[C@@H](CCCCN)C(=O)N[C@@H](CCCNC(=N)N)C(=O)N[C@H](C(=O)N[C@H](C(=O)N[C@@H](CCC(N)=O)C(=O)N[C@@H](CCCNC(=N)N)C(=O)N[C@H](C(=O)N[C@@H](CCCCN)C(=O)N[C@@H](CC(=O)O)C(=O)N[C@@H](Cc1ccccc1)C(=O)N[C@@H](CC(C)C)C(=O)N[C@@H](CCCNC(=N)N)C(=O)N[C@@H](CC(N)=O)C(=O)N[C@@H](CC(C)C)C(=O)N[C@H](C(=O)N1CCC[C@H]1C(=O)N[C@@H](CCCNC(=N)N)C(=O)O)C(C)C)[C@@H](C)CC)C(C)C)[C@@H](C)CC [LL-34—D4A] (H-LLGAFFRKSKEKIGKEFKRIVQRIKDFLRNLVPR-OH; N-terminus and C-terminus assumed)	5
CC[C@H](C)[C@H](NC(=O)[C@H](CCCCN)NC(=O)[C@H](CCC(=O)O)NC(=O)[C@H](CCCCN)NC(=O)[C@H](CO)NC(=O)[C@H](CCCCN)NC(=O)[C@H](CCCNC(=N)N)NC(=O)[C@H](Cc1ccccc1)NC(=O)[C@H](Cc1ccccc1)NC(=O)[C@H](CC(=O)O)NC(=O)CNC(=O)[C@H](CC(C)C)NC(=O)[C@@H](N)CC(C)C)C(=O)NCC(=O)N[C@@H](CCCCN)C(=O)N[C@@H](CCC(=O)O)C(=O)N[C@@H](Cc1ccccc1)C(=O)N[C@@H](CCCCN)C(=O)N[C@@H](CCCNC(=N)N)C(=O)N[C@H](C(=O)N[C@H](C(=O)N[C@@H](CCC(N)=O)C(=O)N[C@@H](CCCNC(=N)N)C(=O)N[C@H](C(=O)N[C@@H](CCCCN)C(=O)N[C@@H](C)C(=O)N[C@@H](Cc1ccccc1)C(=O)N[C@@H](CC(C)C)C(=O)N[C@@H](CCCNC(=N)N)C(=O)N[C@@H](CC(N)=O)C(=O)N[C@@H](CC(C)C)C(=O)N[C@H](C(=O)N1CCC[C@H]1C(=O)N[C@@H](CCCNC(=N)N)C(=O)O)C(C)C)[C@@H](C)CC)C(C)C)[C@@H](C)CC [LL-34—D26A] (H-LLGDFFRKSKEKIGKEFKRIVQRIKAFLRNLVPR-OH; N-terminus and C-terminus assumed)	10
CC[C@H](C)[C@H](NC(=O)[C@H](CCCCN)NC(=O)[C@H](C)NC(=O)[C@H](CCCCN)NC(=O)[C@H](CO)NC(=O)[C@H](CCCCN)NC(=O)[C@H](CCCNC(=N)N)NC(=O)[C@H](Cc1ccccc1)NC(=O)[C@H](Cc1ccccc1)NC(=O)[C@H](CC(=O)O)NC(=O)CNC(=O)[C@H](CC(C)C)NC(=O)[C@@H](N)CC(C)C)C(=O)NCC(=O)N[C@@H](CCCCN)C(=O)N[C@@H](CCC(=O)O)C(=O)N[C@@H](Cc1ccccc1)C(=O)N[C@@H](CCCCN)C(=O)N[C@@H](CCCNC(=N)N)C(=O)N[C@H](C(=O)N[C@H](C(=O)N[C@@H](CCC(N)=O)C(=O)N[C@@H](CCCNC(=N)N)C(=O)N[C@H](C(=O)N[C@@H](CCCCN)C(=O)N[C@@H](CC(=O)O)C(=O)N[C@@H](Cc1ccccc1)C(=O)N[C@@H](CC(C)C)C(=O)N[C@@H](CCCNC(=N)N)C(=O)N[C@@H](CC(N)=O)C(=O)N[C@@H](CC(C)C)C(=O)N[C@H](C(=O)N1CCC[C@H]1C(=O)N[C@@H](CCCNC(=N)N)C(=O)O)C(C)C)[C@@H](C)CC)C(C)C)[C@@H](C)CC [LL-34—E11A] (H-LLGDFFRKSKAKIGKEFKRIVQRIKDFLRNLVPR-OH; N-terminus and C-terminus assumed)	5
CC[C@H](C)[C@H](NC(=O)[C@H](CCCCN)NC(=O)[C@H](CCC(=O)O)NC(=O)[C@H](CCCCN)NC(=O)[C@H](CO)NC(=O)[C@H](CCCCN)NC(=O)[C@H](CCCNC(=N)N)NC(=O)[C@H](Cc1ccccc1)NC(=O)[C@H](Cc1ccccc1)NC(=O)[C@H](CC(=O)O)NC(=O)CNC(=O)[C@H](CC(C)C)NC(=O)[C@@H](N)CC(C)C)C(=O)NCC(=O)N[C@@H](CCCCN)C(=O)N[C@@H](C)C(=O)N[C@@H](Cc1ccccc1)C(=O)N[C@@H](CCCCN)C(=O)N[C@@H](CCCNC(=N)N)C(=O)N[C@H](C(=O)N[C@H](C(=O)N[C@@H](CCC(N)=O)C(=O)N[C@@H](CCCNC(=N)N)C(=O)N[C@H](C(=O)N[C@@H](CCCCN)C(=O)N[C@@H](CC(=O)O)C(=O)N[C@@H](Cc1ccccc1)C(=O)N[C@@H](CC(C)C)C(=O)N[C@@H](CCCNC(=N)N)C(=O)N[C@@H](CC(N)=O)C(=O)N[C@@H](CC(C)C)C(=O)N[C@H](C(=O)N1CCC[C@H]1C(=O)N[C@@H](CCCNC(=N)N)C(=O)O)C(C)C)[C@@H](C)CC)C(C)C)[C@@H](C)CC [LL-34—E16A] (H-LLGDFFRKSKEKIGKAFKRIVQRIKDFLRNLVPR-OH; N-terminus and C-terminus assumed)	5
CC[C@H](C)[C@H](NC(=O)[C@H](CCCCN)NC(=O)[C@H](CCC(=O)O)NC(=O)[C@H](CCCCN)NC(=O)[C@H](CO)NC(=O)[C@H](CCCCN)NC(=O)[C@H](CCCNC(=N)N)NC(=O)[C@H](Cc1ccccc1)NC(=O)[C@H](Cc1ccccc1)NC(=O)[C@H](CC(=O)O)NC(=O)[C@H](C)NC(=O)[C@H](CC(C)C)NC(=O)[C@@H](N)CC(C)C)C(=O)NCC(=O)N[C@@H](CCCCN)C(=O)N[C@@H](CCC(=O)O)C(=O)N[C@@H](Cc1ccccc1)C(=O)N[C@@H](CCCCN)C(=O)N[C@@H](CCCNC(=N)N)C(=O)N[C@H](C(=O)N[C@H](C(=O)N[C@@H](CCC(N)=O)C(=O)N[C@@H](CCCNC(=N)N)C(=O)N[C@H](C(=O)N[C@@H](CCCCN)C(=O)N[C@@H](CC(=O)O)C(=O)N[C@@H](Cc1ccccc1)C(=O)N[C@@H](CC(C)C)C(=O)N[C@@H](CCCNC(=N)N)C(=O)N[C@@H](CC(N)=O)C(=O)N[C@@H](CC(C)C)C(=O)N[C@H](C(=O)N1CCC[C@H]1C(=O)N[C@@H](CCCNC(=N)N)C(=O)O)C(C)C)[C@@H](C)CC)C(C)C)[C@@H](C)CC [LL-34—G3A] (H-LLADFFRKSKEKIGKEFKRIVQRIKDFLRNLVPR-OH; N-terminus and C-terminus assumed)	20
CC[C@H](C)[C@H](NC(=O)[C@H](CCCCN)NC(=O)[C@H](CCC(=O)O)NC(=O)[C@H](CCCCN)NC(=O)[C@H](CO)NC(=O)[C@H](CCCCN)NC(=O)[C@H](CCCNC(=N)N)NC(=O)[C@H](Cc1ccccc1)NC(=O)[C@H](Cc1ccccc1)NC(=O)[C@H](CC(=O)O)NC(=O)CNC(=O)[C@H](CC(C)C)NC(=O)[C@@H](N)CC(C)C)C(=O)N[C@@H](C)C(=O)N[C@@H](CCCCN)C(=O)N[C@@H](CCC(=O)O)C(=O)N[C@@H](Cc1ccccc1)C(=O)N[C@@H](CCCCN)C(=O)N[C@@H](CCCNC(=N)N)C(=O)N[C@H](C(=O)N[C@H](C(=O)N[C@@H](CCC(N)=O)C(=O)N[C@@H](CCCNC(=N)N)C(=O)N[C@H](C(=O)N[C@@H](CCCCN)C(=O)N[C@@H](CC(=O)O)C(=O)N[C@@H](Cc1ccccc1)C(=O)N[C@@H](CC(C)C)C(=O)N[C@@H](CCCNC(=N)N)C(=O)N[C@@H](CC(N)=O)C(=O)N[C@@H](CC(C)C)C(=O)N[C@H](C(=O)N1CCC[C@H]1C(=O)N[C@@H](CCCNC(=N)N)C(=O)O)C(C)C)[C@@H](C)CC)C(C)C)[C@@H](C)CC [LL-34—G14A] (H-LLGDFFRKSKEKIAKEFKRIVQRIKDFLRNLVPR-OH; N-terminus and C-terminus assumed)	5
